Experimental data from patent publication US11952433B2, “Heterochiral peptide-complex and composition for measuring nuclear magnetic resonance spectroscopy residual dipolar coupling containing self-assembled intermediates of heterochiral peptide-complex” (INDUSTRY-ACADEMIC COOPERATION FOUNDATION, YONSEI UNIVERSITY, priority 2020, dated 2024).

Experiments:
[1] = Wide-angle X-ray scattering (WAXS) of the colloidal crystal solution; format: physicochemical; conditions: for WAXS d-spacing, intersheet distance / WAXS reflection d (second reflection) / WAXS reflection d, interstrand distance of β-sheets: 3.0 mg/mL, room temperature
Method: Wide-angle X-ray scattering analysis was performed using the 4C SAXS II beamline (BL) of the Pohang Accelerator Laboratory (PAL, Korea). In-vacuum undulator 20 of the Pohang Light Source II storage ring was used as a beam source, and a vertical toroidal focusing mirror was used to deliver an X-ray beam of 0.675 Å. 100 μL of the sample solution was mounted in a quartz microcapillary with a thickness of 10 μm and a length of 80 mm. The sample was irradiated for 5 seconds of exposure time at room temperature. The concentrations of the samples of Comparative Examples 1-2 and Example 1 (T-W6, T-w6 and T-(wW)3) were all 3.0 mg/mL. The X-ray scattering patterns were collected by using a charge-coupled detector (Mar USA, Inc.) positioned 20 cm apart from the sample (0.25 Å^−1<q<2.00 Å^−1).
The data were captured in six continuous frames of 0.1 minute each to minimize the damage from irradiation. Each 2D scattering pattern was averaged circularly from the beam focus and normalized to the intensity of the transmitted X-ray beam. The transmitted beam intensity was monitored with a scintillation counter. The scattering pattern of water was used as the experimental background.
However, the detailed molecular arrangement of the peptide in each crystal might be different. To address this question, wide-angle X-ray scattering (WAXS) analysis of the colloidal crystal solution was performed.

[2] = Time course of self-assembly in solution by CD and AFM; format: physicochemical; conditions: in water; for self-assembly kinetics (in words): CD and AFM with time
Method: The CD spectra of the peptide complexes in aqueous solution were acquired using a Chirascan™ CD spectrometer. All the peptide complexes were adjusted to 20 μM with DI water and then incubated at room temperature for 2 hours. The CD spectra were recorded using a 2-mm path-length cuvette from 250 nm to 190 nm at 25° C. Each spectrum was collected by averaging three scans and corrected for the distilled water background spectrum.
The peptide complex samples were diluted to 20 μM and 10 μL was dropped onto a freshly cleaved mica plate. After 1 minute of incubation, the mica plate was washed with 100 μL of doubly distilled water and then the residual solution was gently removed using filter paper. After completely drying at room temperature, AFM measurement was made. The AFM scans were conducted at noncontact mode (NCM) with a Park NX10 instrument (Park Systems, Korea). The scanning was performed at a scan rate of 0.3 Hz and a Z-gain of 1.
All the peptide samples were diluted to 1 mM and divided into 1-mL aliquots. The aliquots were heated at 95° C. for 1 hour and slowly annealed in a water bath overnight. After the annealing process, the samples were incubated at room temperature and the self-assembly process with time was analyzed by CD, AFM, WAXS, NMR, etc.

Substance | distance between the β strands [1] | WAXS d-spacing, intersheet distance [1] [Å] | WAXS reflection d (second reflection) [1] [Å] | WAXS reflection d, interstrand distance of β-sheets [1] [Å] | self-assembly kinetics (in words) [2] | time after which the increase in CD signals had almost ceased (self-assembly equilibrium) ([2]; room temperature after annealing) [weeks]
(D)Trp-(L)Trp-(D)Trp-(L)Tre-(D)Trp-(L)Trp [Example 1] | 4.56-4.92 Å | 17.0 | 5.6 | 4.7 | markedly slower self-assembly kinetics | 2
PEGylated (D)Trp-(D)Trp-(D)Trp-(D)Trp-(D)Trp-(D)Trp [Comparative Example 2] | – | 17.5 | 5.8 | 4.7 | – | –
PEGylated (L)Trp-(D)Trp-(L)Trp-(D)Trp-(L)Trp-(D)Trp [Example 2] | – | – | – | – | same slow assembly kinetics | –
PEGylated (L)Trp-(L)Trp-(L)Trp-(L)Trp-(L)Trp-(L)Trp [Comparative Example 1] | – | 17.5 | 5.8 | 4.7 | – | –
